The record followed here is patent publication US20220184020A1, “Polyphenols as Modulators of Platelet Function” (Northeastern University, priority 2019, published 2022).

The test system of one assay is washed platelets. The assay can be described thus: Platelet total tyrosine phosphorylation (4G10 immunoblot). In kind it is cell-based, human. As to conditions: in response to CRPXL, TRAP-6 and U46619; RA-treated platelets. Here is the method:
The molecular mechanisms involved in the functional impact of RA on platelets was clarified. The RA target FYN is a protein-tyrosine kinase and platelet activation is coordinated by several kinases that phosphorylate adaptors, enzymes, and cytoskeletal proteins downstream of platelet surface receptors. Given this connection, RA may inhibit platelets function by blocking agonist-induced protein tyrosine phosphorylation.
Human blood collection was performed as previously described in accordance with the Declaration of Helsinki and ethics regulations with Institutional Review Board approval from Brigham and Women's Hospital (P001526). […] Citrated whole blood underwent centrifugation with a slow break (177×g, 20 minutes) and the PRP fraction was acquired for subsequent experiments. For washed platelets, PRP was incubated with 1 μM prostaglandin E1 (Sigma, P5515) and immediately underwent centrifugation with a slow break (1000×g, 5 minutes). Platelet-poor plasma was aspirated, and pellets resuspended in platelet resuspension buffer (PRB; 10 mM Hepes, 140 mM NaCl, 3 mM KCl, 0.5 mM MgCl2, 5 mM NaHCO3, 10 mM glucose, pH 7.4).
Washed platelets were pre-treated with RA for 1 hour, followed by agonist stimulation for 10 minutes. Platelets were lysed on ice with RIPA Lysis Buffer System® (Santa Cruz®, sc-24948) and sample supernatants clarified via centrifugation (14,000 rpm, 5 min, 4° C.). […]

A further assay has as its system platelets. As to the kind of experiment: Integrin αIIbβ3 activation (fibrinogen binding). It counts as cell-based, human. Particulars: in response to U46619; RA pre-treatment 1 hour. On the procedure:
To validate the predictive power of the developed framework, direct experimental evidence of the predicted mechanistic role of Rosmarinic acid (RA) in VD was sought. […] Therefore, whether RA influenced platelet activation in vitro was evaluated. As platelets can be stimulated through different activation pathways, RA effects can, in principle, occur in any of them. To test these different possibilities, platelets were pretreated with RA and then activated with: 1) glycoprotein VI by collagen or collagen-related peptide (Collagen/CRPXL); 2) protease-activated receptors-1,4 by thrombin receptor activator peptide-6 (TRAP-6); 3) prostanoid thromboxane receptor by the thromboxane A2 analogue (U46619); and 4) P2Y1/12 receptor stimulation by adenosine diphosphate (ADP). When the network distance between each stimulant receptor and the RA-VD-platelet module (FIG. 11A) was compared, it was observed that the receptors for Collagen/CRPXL, TRAP-6, and U46619 are closer than the random expectation, while the receptor for ADP is more distant (FIG. 11B). It is expected that platelets would be most affected by RA when treated with stimulants whose receptors are most proximal to the RA-VD-platelet module, i.e. Collagen/CRPXL, TRAP-6, and U46619. […] Percent-positive cells were determined by gating on fluorescence intensity compared to unstimulated samples.

For `O=C(/C=C/c1ccc(O)c(O)c1)O[C@H](Cc1ccc(O)c(O)c1)C(=O)O` [rosmarinic acid], the total tyrosine phosphorylation result with washed platelets is “dose-dependent reduction”. Also, in the assay on platelets, the “integrin αIIbβ3 activation” value was “dampened”.
